In ChEMBL document CHEMBL1806424, “The novel 3,4-dihydropyrimidin-2(1H)-one urea derivatives of N-aryl urea: synthesis, anti-inflammatory, antibacterial and antifungal activity evaluation” (2011):
≈ marks a conversion by molar mass, not a printed value. Calls of active or inactive are those of the source. The rule behind the calls is not given here.

How the values were obtained:
[1] = tested on: Aspergillus flavus; assay: Antifungal activity against Aspergillus flavus; assay type: functional
[2] = tested on: THP-1; assay: Antiinflammatory activity in human THP1 cells assessed as inhibition of LPS-induced TNFalpha production at 10 uM treated 30 mins before LPS challenge measured after 24 hrs by ELISA; assay type: functional
[3] = tested on: Aspergillus flavus; assay: Ratio of miconazole MIC to compound MIC for Aspergillus flavus; assay type: functional
[4] = tested on: Bacillus subtilis; assay: Antibacterial activity against Bacillus subtilis; assay type: functional
[5] = tested on: Salmonella typhimurium; assay: Antibacterial activity against Salmonella Typhimurium; assay type: functional, Salmonella enterica subsp. enterica serovar Typhimurium; details: Salmonella enterica
[6] = tested on: Staphylococcus aureus; assay: Ratio of ciprofloxacin MIC to compound MIC for Staphylococcus aureus; assay type: functional
[7] = tested on: Staphylococcus aureus; assay: Antibacterial activity against Staphylococcus aureus; assay type: functional
[8] = tested on: Escherichia coli; assay: Antibacterial activity against Escherichia coli; assay type: functional
[9] = tested on: Candida albicans; assay: Ratio of miconazole MIC to compound MIC for Candida albicans; assay type: functional
[10] = tested on: Fusarium solani; assay: Antifungal activity against Fusarium solani; assay type: functional
[11] = tested on: Salmonella typhimurium; assay: Ratio of ciprofloxacin MIC to compound MIC for Salmonella Typhimurium; assay type: functional, Salmonella enterica subsp. enterica serovar Typhimurium
[12] = tested on: Bacillus subtilis; assay: Ratio of ciprofloxacin MIC to compound MIC for Bacillus subtilis; assay type: functional
[13] = tested on: Aspergillus niger; assay: Antifungal activity against Aspergillus niger; assay type: functional
[14] = tested on: Fusarium solani; assay: Ratio of miconazole MIC to compound MIC for Fusarium solani; assay type: functional
[15] = tested on: Candida albicans; assay: Antifungal activity against Candida albicans; assay type: functional
[16] = tested on: THP-1; assay: Antiinflammatory activity in human THP1 cells assessed as inhibition of LPS-induced IL6 production at 10 uM treated 30 mins before LPS challenge measured after 24 hrs by ELISA; assay type: functional
[17] = tested on: Escherichia coli; assay: Ratio of ciprofloxacin MIC to compound MIC for Escherichia coli; assay type: functional
[18] = tested on: Aspergillus niger; assay: Ratio of miconazole MIC to compound MIC for Aspergillus niger; assay type: functional
[19] = tested on: Aspergillus niger; assay: Antifungal activity against Aspergillus niger at 200 ug/ml; assay type: functional, organism-based
[20] = tested on: Fusarium solani; assay: Antifungal activity against Fusarium solani at 200 ug/ml; assay type: functional, organism-based
[21] = tested on: Aspergillus flavus; assay: Antifungal activity against Aspergillus flavus at 200 ug/ml; assay type: functional, organism-based
[22] = tested on: Bacillus subtilis; assay: Antibacterial activity against Bacillus subtilis at 200 ug/ml; assay type: functional, organism-based
[23] = tested on: Salmonella typhimurium; assay: Antibacterial activity against Salmonella Typhimurium at 200 ug/ml; assay type: functional, organism-based; details: Salmonella enterica subsp. enterica serovar Typhimurium
[24] = tested on: Escherichia coli; assay: Antibacterial activity against Escherichia coli at 200 ug/ml; assay type: functional, organism-based
[25] = tested on: THP-1; assay: Antiinflammatory activity in human THP1 cells assessed as inhibition of LPS-induced IL6 production at 1 uM treated 30 mins before LPS challenge measured after 24 hrs by ELISA; assay type: functional
[26] = tested on: THP-1; assay: Antiinflammatory activity in human THP1 cells assessed as inhibition of LPS-induced TNFalpha production at 1 uM treated 30 mins before LPS challenge measured after 24 hrs by ELISA; assay type: functional
[27] = tested on: Candida albicans; assay: Antifungal activity against Candida albicans at 200 ug/ml; assay type: functional, organism-based
[28] = tested on: Staphylococcus aureus; assay: Antibacterial activity against Staphylococcus aureus at 200 ug/ml; assay type: functional, organism-based

SMILES	MIC [1] [µg/mL]	inhibition at 10 µM [2] [%]	MIC [4] [µg/mL]	MIC [5] [µg/mL]	MIC [7] [µg/mL]	MIC [8] [µg/mL]	MIC [10] [µg/mL]	MIC [13] [µg/mL]	MIC [15] [µg/mL]	inhibition at 10 µM [16] [%]	also measured
CCOC(=O)C1=C(C)NC(=S)NC1c1ccc(NC(=O)Nc2ccccc2F)cc1 (stereo not given)	10 (≈ 23.3 µM)	0	15 (≈ 35 µM)	40 (≈ 93.4 µM)	10 (≈ 23.3 µM)	10 (≈ 23.3 µM)	15 (≈ 35 µM)	10 (≈ 23.3 µM)	10 (≈ 23.3 µM)	40	Ratio [3]: 2.5; Ratio [6]: 1.5; Ratio [9]: 2.5; Ratio [11]: 1.5; Ratio [12]: 1.5; Ratio [14]: 2.5; Ratio [17]: 1.5; Ratio [18]: 2.5
CCOC(=O)C1=C(C)NC(=S)NC1c1ccc(NC(=O)Nc2c(F)cccc2Cl)cc1 (stereo not given)	90 (≈ 194 µM)	0	55 (≈ 119 µM)	85 (≈ 184 µM)	65 (≈ 140 µM)	85 (≈ 184 µM)	80 (≈ 173 µM)	60 (≈ 130 µM)	40 (≈ 86.4 µM)	36	–
CCOC(=O)C1=C(C)NC(=S)NC1c1ccc(NC(=O)Nc2c(C)cccc2F)cc1 (stereo not given)	40 (≈ 90.4 µM)	0	65 (≈ 147 µM)	30 (≈ 67.8 µM)	60 (≈ 136 µM)	30 (≈ 67.8 µM)	40 (≈ 90.4 µM)	35 (≈ 79.1 µM)	50 (≈ 113 µM)	6	–
CCOC(=O)C1=C(C)NC(=S)NC1c1ccc(NC(=O)Nc2ccc(C(C)C)cc2)cc1 (stereo not given)	95 (≈ 210 µM)	30	85 (≈ 188 µM)	95 (≈ 210 µM)	85 (≈ 188 µM)	55 (≈ 122 µM)	80 (≈ 177 µM)	90 (≈ 199 µM)	90 (≈ 199 µM)	65	–
CCOC(=O)C1=C(C)NC(=S)NC1c1ccc(NC(=O)Nc2ccccc2OC(F)(F)F)cc1 (stereo not given)	15 (≈ 30.3 µM)	20	30 (≈ 60.7 µM)	20 (≈ 40.4 µM)	30 (≈ 60.7 µM)	25 (≈ 50.6 µM)	15 (≈ 30.3 µM)	20 (≈ 40.4 µM)	15 (≈ 30.3 µM)	60	–
Clc1ccc(COC(Cn2ccnc2)c2ccc(Cl)cc2Cl)c(Cl)c1 (stereo not given) [MICONAZOLE]	20 (≈ 48.1 µM)	–	–	–	–	–	15 (≈ 36 µM)	20 (≈ 48.1 µM)	25 (≈ 60.1 µM)	–	–
O=C(O)c1cn(C2CC2)c2cc(N3CCNCC3)c(F)cc2c1=O [CIPROFLOXACIN]	–	–	25 (≈ 75.4 µM)	25 (≈ 75.4 µM)	–	15 (≈ 45.3 µM)	–	–	–	–	–
CCOC(=O)C1=C(C)NC(=S)NC1c1ccc(NC(=O)Nc2ccc(C(F)(F)F)cc2Cl)cc1 (stereo not given)	35 (≈ 68.2 µM)	16	35 (≈ 68.2 µM)	55 (≈ 107 µM)	35 (≈ 68.2 µM)	25 (≈ 48.7 µM)	60 (≈ 117 µM)	40 (≈ 78 µM)	35 (≈ 68.2 µM)	73	–
CCOC(=O)C1=C(C)NC(=S)NC1c1ccc(NC(=O)Nc2c(Cl)cccc2C(F)(F)F)cc1 (stereo not given)	55 (≈ 107 µM)	0	85 (≈ 166 µM)	90 (≈ 175 µM)	40 (≈ 78 µM)	60 (≈ 117 µM)	80 (≈ 156 µM)	65 (≈ 127 µM)	60 (≈ 117 µM)	39	–
CCOC(=O)C1=C(C)NC(=S)NC1c1ccc(NC(=O)Nc2ccccc2Oc2ccccc2)cc1 (stereo not given)	30 (≈ 59.7 µM)	0	55 (≈ 109 µM)	40 (≈ 79.6 µM)	40 (≈ 79.6 µM)	35 (≈ 69.6 µM)	30 (≈ 59.7 µM)	60 (≈ 119 µM)	40 (≈ 79.6 µM)	36	–
CCOC(=O)C1=C(C)NC(=S)NC1c1ccc(NC(=O)Nc2ccccc2C(F)(F)F)cc1 (stereo not given)	30 (≈ 62.7 µM)	10	25 (≈ 52.2 µM)	30 (≈ 62.7 µM)	25 (≈ 52.2 µM)	15 (≈ 31.3 µM)	30 (≈ 62.7 µM)	40 (≈ 83.6 µM)	25 (≈ 52.2 µM)	27	–
CCOC(=O)C1=C(C)NC(=S)NC1c1ccc(N)cc1 (stereo not given)	60 (≈ 206 µM)	0	55 (≈ 189 µM)	60 (≈ 206 µM)	40 (≈ 137 µM)	40 (≈ 137 µM)	45 (≈ 154 µM)	40 (≈ 137 µM)	55 (≈ 189 µM)	3	–
CCOC(=O)C1=C(C)NC(=S)NC1c1ccc(NC(=O)Nc2c(C)cccc2Cl)cc1 (stereo not given)	40 (≈ 87.2 µM)	2	65 (≈ 142 µM)	80 (≈ 174 µM)	40 (≈ 87.2 µM)	55 (≈ 120 µM)	40 (≈ 87.2 µM)	55 (≈ 120 µM)	40 (≈ 87.2 µM)	11	–
CCOC(=O)C1=C(C)NC(=S)NC1c1ccc(NC(=O)Nc2c(F)cccc2C(F)(F)F)cc1 (stereo not given)	60 (≈ 121 µM)	0	40 (≈ 80.6 µM)	60 (≈ 121 µM)	55 (≈ 111 µM)	40 (≈ 80.6 µM)	60 (≈ 121 µM)	30 (≈ 60.4 µM)	55 (≈ 111 µM)	27	–
CCOC(=O)C1=C(C)NC(=S)NC1c1ccc(NC(=O)Nc2cc(F)cc(F)c2)cc1 (stereo not given)	–	62	–	–	90 (≈ 202 µM)	–	–	–	95 (≈ 213 µM)	86	Activity [19]: inactive; Activity [20]: inactive; Activity [21]: inactive; Activity [22]: inactive; Activity [23]: inactive; Activity [24]: inactive
CCOC(=O)C1=C(C)NC(=S)NC1c1ccc(NC(=O)Nc2ccc(F)c(Cl)c2)cc1 (stereo not given)	–	3	–	–	60 (≈ 130 µM)	85 (≈ 184 µM)	95 (≈ 205 µM)	–	80 (≈ 173 µM)	40	Activity [19]: inactive; Activity [21]: inactive; Activity [22]: inactive; Activity [23]: inactive
CCOC(=O)C1=C(C)NC(=S)NC1c1ccc(NC(=O)Nc2cc(C(F)(F)F)ccc2Cl)cc1 (stereo not given)	90 (≈ 175 µM)	68	85 (≈ 166 µM)	90 (≈ 175 µM)	55 (≈ 107 µM)	80 (≈ 156 µM)	85 (≈ 166 µM)	80 (≈ 156 µM)	60 (≈ 117 µM)	92	–
CCOC(=O)C1=C(C)NC(=S)NC1c1ccc(NC(=O)Nc2ccc(F)c(C)c2)cc1 (stereo not given)	95 (≈ 215 µM)	0	90 (≈ 203 µM)	90 (≈ 203 µM)	65 (≈ 147 µM)	–	–	95 (≈ 215 µM)	80 (≈ 181 µM)	16	Activity [20]: inactive; Activity [24]: inactive
CCOC(=O)C1=C(C)NC(=S)NC1c1ccc(NC(=O)Nc2cccc(C(F)(F)F)c2)cc1 (stereo not given)	15 (≈ 31.3 µM)	0	55 (≈ 115 µM)	40 (≈ 83.6 µM)	40 (≈ 83.6 µM)	20 (≈ 41.8 µM)	15 (≈ 31.3 µM)	20 (≈ 41.8 µM)	25 (≈ 52.2 µM)	11	–
CCOC(=O)C1=C(C)NC(=S)NC1c1ccc([N+](=O)[O-])cc1 (stereo not given)	60 (≈ 187 µM)	0	45 (≈ 140 µM)	50 (≈ 156 µM)	35 (≈ 109 µM)	30 (≈ 93.4 µM)	60 (≈ 187 µM)	50 (≈ 156 µM)	30 (≈ 93.4 µM)	8	–
C[C@@H]1C[C@H]2[C@@H]3CCC4=CC(=O)C=C[C@]4(C)[C@@]3(F)[C@@H](O)C[C@]2(C)[C@@]1(O)C(=O)CO [DEXAMETHASONE]	–	–	–	–	–	–	–	–	–	–	inhibition at 1 µM [25]: 84%; inhibition at 1 µM [26]: 71%
CCOC(=O)C1=C(C)NC(=S)NC1c1ccc(NC(=O)Nc2ccc(OC)cc2)cc1 (stereo not given)	30 (≈ 68.1 µM)	0	20 (≈ 45.4 µM)	45 (≈ 102 µM)	15 (≈ 34.1 µM)	15 (≈ 34.1 µM)	30 (≈ 68.1 µM)	25 (≈ 56.8 µM)	10 (≈ 22.7 µM)	42	–
CCOC(=O)C1=C(C)NC(=S)NC1c1ccc(NC(=O)Nc2ccccc2Cl)cc1 (stereo not given)	30 (≈ 67.4 µM)	0	20 (≈ 44.9 µM)	40 (≈ 89.9 µM)	10 (≈ 22.5 µM)	10 (≈ 22.5 µM)	15 (≈ 33.7 µM)	15 (≈ 33.7 µM)	10 (≈ 22.5 µM)	43	Ratio [3]: 2.5; Ratio [6]: 1.5; Ratio [9]: 2.5; Ratio [11]: 1.5; Ratio [12]: 1.5; Ratio [14]: 2.5; Ratio [17]: 1.5; Ratio [18]: 2.5
CCCCc1ccc(NC(=O)Nc2ccc(C3NC(=S)NC(C)=C3C(=O)OCC)cc2)cc1 (stereo not given)	–	0	–	–	–	95 (≈ 204 µM)	–	–	–	10	Activity [27]: inactive; Activity [19]: inactive; Activity [28]: inactive; Activity [20]: inactive; Activity [21]: inactive; Activity [22]: inactive; Activity [23]: inactive
CCOC(=O)C1=C(C)NC(=S)NC1c1ccc(NC(=O)Nc2ccc(C(F)(F)F)cc2)cc1 (stereo not given)	25 (≈ 52.2 µM)	3	25 (≈ 52.2 µM)	30 (≈ 62.7 µM)	20 (≈ 41.8 µM)	10 (≈ 20.9 µM)	10 (≈ 20.9 µM)	15 (≈ 31.3 µM)	15 (≈ 31.3 µM)	55	–
CCOC(=O)C1=C(C)NC(=S)NC1c1ccc(NC(=O)Nc2ccc(C)c(C)c2)cc1 (stereo not given)	–	0	95 (≈ 217 µM)	–	90 (≈ 205 µM)	–	–	–	95 (≈ 217 µM)	2	Activity [19]: inactive; Activity [20]: inactive; Activity [21]: inactive; Activity [23]: inactive; Activity [24]: inactive
